Test results published in PubChem BioAssay AID1919015 (Molecular Pharmacology Branch, DTP, NCI, 2023).
pIC50: −log10 of the molar value.

System: OVCAR-5 complex spheroids with HUVEC/MSC, viability, % test/control
Assay: Anticancer human tumor OVCAR-5 cell line growth inhibition [AhR];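 note: spheroids exposed to compounds for 7 days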;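 for viability, T/C: 100% = DMSO vehicle control wells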
Conditions: for pIC50: curve of first compound; for viability, T/C: stronger effect = lower value; active = viability on the fitted dose curve at most 10% of control; inactive = the rest
Source text: Multicellular complex tumor spheroid response to aryl hydrocarbon receptor antagonists in combination with a variety of drugs and investigational agents in selected tumor cell lines
The current study was undertaken to assess response to aryl hydrocarbon receptor antagonists in combination with standard-of-care drugs and investigational agents in solid tumor complex spheroid models. Complex spheroids include a stromal component modeled by human endothelial cells (HUVEC) and fibroblasts modeled by human mesenchymal stem cells (MSCs). The concentration ranges selected for each drug and investigational agent were based upon clinically achievable concentrations if the clinical Cmax of the agent was known.
Compounds. The drugs and investigational agents: BAY 2416964 (NSC825713), GNF351 (NSC835774), CH-223191 (NSC835775), CPI-455 (NSC825282), aza-TdCyd (NSC777586), decitabine (NSC127716), belinostat (NSC758774), entinostat (NSC756642), pevonedistat (NSC761192), tazemetostat (NSC777109), talazoparib (NSC765396), olaparib (NSC753686), selinexor (NSC780203), nedisertib (M3814, NSC802822), bortezomib (NSC756655), venetoclax (NSC766270), doxorubicin (NSC123127), elimusertib (BAY189344, NSC800525), ceralasertib (AZD6738, NSC777638), TAK-243 (NSC785004), alisertib (NSC759677), etoposide (NSC141540), topotecan (NSC609699), eribulin (NSC707389), gemcitabine (NSC613327), carboplatin (NSC241240), cisplatin (NSC119875), and SN-38 (NSC673596) were obtained from the National Cancer Institute (NCI) Developmental Therapeutics Program Chemical Repository (32). The FDA-approved anticancer drug set is available from the Developmental Therapeutics Program at https://dtp.cancer.gov/organization/dscb/obtaining/available plates.htm. […] The stock solutions were prepared in dimethyl sulfoxide (DMSO, Sigma-Aldrich, St. Louis, MO, cat. D2650), except for the platinum compounds which were prepared in saline (Quality Biological, Gaithersburg, MD, cat. 114-055-101), at 800-fold the tested concentration and stored at -70 degrees C prior to their use. All drugs and investigational agents were tested over a range starting from a high concentration at or near the clinical Cmax and decreasing in half-log increments. If the clinical Cmax for an agent had not been determined, the highest concentration tested was 10 microM (Table 1).
Cell Culture. All cells were maintained in an incubator at 37 degrees C and 5% CO2 with 95% humidity. The PDC lines were cultured according to standard operating procedures established by the NCI PDMR (https://pdmr.cancer.gov). Briefly, all PDCs were thawed and cultured in Matrigel-coated flasks prepared with a working solution of 1X Ham's F-12 nutrient mix, without supplementation (Invitrogen, Waltham, MA, cat. 11765054), 100 U/mL penicillin-streptomycin (Invitrogen, cat. 15140122), and 2.5% Matrigel (Corning Inc., Corning, NY, cat. 354248) for the first three passages. All PDCs were cultured in complete DMEM/F-12 media containing advanced DMEM/F-12 (Invitrogen, cat. 12634028), 4.9% defined fetal bovine serum, heat inactivated (HyClone Laboratories Inc., Logan, UT, cat. SH30070.03HI), 389 ng/mL hydrocortisone (Sigma-Aldrich, cat. H4001), 9.7 ng/mL human EGF recombinant protein (Invitrogen, cat. PHG0313), 23.4 microg/mL adenine (Sigma-Aldrich, cat. A2786), 97.3 U/mL penicillin-streptomycin (Invitrogen, cat. 15140122), 1.9 mM L-glutamine (Invitrogen, cat. 25030081), and 9.7 microM Y-27632 dihydrochloride (Tocris Bioscience, Bristol, United Kingdom, cat. 1254). The PDCs were cultured in complete DMEM/F12 media without 10 microM Y-27632 dihydrochloride for at least two passages prior to the screen. The established cell lines NCI-H1341 and […] were cultured in DMEM/F-12, HEPES (Invitrogen, cat. 11330032), 5% defined fetal bovine serum (HyClone Laboratories Inc., cat. SH30070.03), ITS premix universal culture supplement [insulin (5 microg/mL), transferrin (5 microg/mL), and selenious acid (5 ng/mL)] […]

[1] = second compound 0.1 µM, first compound 0.0316 µM
[2] = second compound 0.1 µM, first compound 0.1 µM
[3] = second compound 0.1 µM, first compound 0.316 µM
[4] = second compound 0.1 µM, first compound 1 µM
[5] = second compound 0.1 µM, first compound 3.16 µM
[6] = second compound 0.1 µM, first compound 10 µM
[7] = second compound 0.316 µM, first compound 0.0316 µM
[8] = second compound 0.316 µM, first compound 0.1 µM
[9] = second compound 0.316 µM, first compound 0.316 µM
[10] = second compound 0.316 µM, first compound 1 µM
[11] = second compound 0.316 µM, first compound 3.16 µM
[12] = second compound 0.316 µM, first compound 10 µM
[13] = second compound 1 µM, first compound 0.0316 µM
[14] = second compound 1 µM, first compound 0.1 µM
[15] = second compound 1 µM, first compound 0.316 µM
[16] = second compound 1 µM, first compound 1 µM
[17] = second compound 1 µM, first compound 3.16 µM
[18] = second compound 1 µM, first compound 10 µM
[19] = second compound 3.16 µM, first compound 0.0316 µM
[20] = second compound 3.16 µM, first compound 0.1 µM
[21] = second compound 3.16 µM, first compound 0.316 µM
[22] = second compound 3.16 µM, first compound 1 µM
[23] = second compound 3.16 µM, first compound 3.16 µM
[24] = second compound 3.16 µM, first compound 10 µM
[25] = second compound 10 µM, first compound 0.0316 µM
[26] = second compound 10 µM, first compound 0.1 µM
[27] = second compound 10 µM, first compound 0.316 µM
[28] = second compound 10 µM, first compound 1 µM
[29] = second compound 10 µM, first compound 3.16 µM
[30] = second compound 10 µM, first compound 10 µM

CC(C)CC(NC(=O)C(Cc1ccccc1)NC(=O)c1cnccn1)B(O)O (stereo not given) + CC(CO)NC(=O)c1cc(-c2ccc(Cl)cc2)nn(-c2cnn(C)c2)c1=O
inactive: viability, T/C (second compound 0.1 µM, first compound 0.000949 µM) 101% | viability, T/C (second compound 0.1 µM, first compound 0.003 µM) 111% | viability, T/C (second compound 0.1 µM, first compound 0.00949 µM) 90.8% | viability, T/C (second compound 0.1 µM, first compound 0.03 µM) 38.2% | viability, T/C (second compound 0.1 µM, first compound 0.0949 µM) 18.2% | viability, T/C (second compound 0.1 µM, first compound 0.3 µM) 11% | viability, T/C (second compound 0.316 µM, first compound 0.000949 µM) 104% | viability, T/C (second compound 0.316 µM, first compound 0.003 µM) 112% | viability, T/C (second compound 0.316 µM, first compound 0.00949 µM) 89.6% | viability, T/C (second compound 0.316 µM, first compound 0.03 µM) 39.1% | viability, T/C (second compound 0.316 µM, first compound 0.0949 µM) 20% | viability, T/C (second compound 0.316 µM, first compound 0.3 µM) 8.57% | viability, T/C (second compound 1 µM, first compound 0.000949 µM) 107% | viability, T/C (second compound 1 µM, first compound 0.003 µM) 111% | viability, T/C (second compound 1 µM, first compound 0.00949 µM) 95% | viability, T/C (second compound 1 µM, first compound 0.03 µM) 39.1% | viability, T/C (second compound 1 µM, first compound 0.0949 µM) 20.5% | viability, T/C (second compound 1 µM, first compound 0.3 µM) 11.5% | viability, T/C (second compound 3.16 µM, first compound 0.000949 µM) 96% | viability, T/C (second compound 3.16 µM, first compound 0.003 µM) 105% | viability, T/C (second compound 3.16 µM, first compound 0.00949 µM) 87.3% | viability, T/C (second compound 3.16 µM, first compound 0.03 µM) 36% | viability, T/C (second compound 3.16 µM, first compound 0.0949 µM) 20% | viability, T/C (second compound 3.16 µM, first compound 0.3 µM) 12.4% | viability, T/C (second compound 10 µM, first compound 0.000949 µM) 88.3% | viability, T/C (second compound 10 µM, first compound 0.003 µM) 97.7% | viability, T/C (second compound 10 µM, first compound 0.00949 µM) 79.4% | viability, T/C (second compound 10 µM, first compound 0.03 µM) 34.4% | viability, T/C (second compound 10 µM, first compound 0.0949 µM) 22.4% | viability, T/C (second compound 10 µM, first compound 0.3 µM) 13.7%
7.63: pIC50 (second compound 0.1 µM)
7.62: pIC50 (second compound 0.316 µM) | pIC50 (second compound 1 µM)
7.69: pIC50 (second compound 10 µM)
7.66: pIC50 (second compound 3.16 µM)

Nc1ccccc1NC(=O)c1ccc(CNC(=O)OCc2cccnc2)cc1 + CC(CO)NC(=O)c1cc(-c2ccc(Cl)cc2)nn(-c2cnn(C)c2)c1=O
6.35: pIC50 (second compound 3.16 µM)
6.40: pIC50 (second compound 10 µM)
active: viability, T/C [6] 7.46% | viability, T/C [12] 7.56% | viability, T/C [18] 7.87% | viability, T/C [24] 6.5% | viability, T/C [30] 4.72%
inactive: viability, T/C [1] 92% | viability, T/C [2] 80.7% | viability, T/C [3] 59.7% | viability, T/C [4] 32.3% | viability, T/C [5] 19.5% | viability, T/C [7] 95.9% | viability, T/C [8] 86.6% | viability, T/C [9] 63.2% | viability, T/C [10] 31% | viability, T/C [11] 18.3% | viability, T/C [13] 95.2% | viability, T/C [14] 85.3% | viability, T/C [15] 63.6% | viability, T/C [16] 30.9% | viability, T/C [17] 17.4% | viability, T/C [19] 85.9% | viability, T/C [20] 77.8% | viability, T/C [21] 59.7% | viability, T/C [22] 27.9% | viability, T/C [23] 14.6% | viability, T/C [25] 83.9% | viability, T/C [26] 81.3% | viability, T/C [27] 55.1% | viability, T/C [28] 24.6% | viability, T/C [29] 12.8%
6.29: pIC50 (second compound 0.316 µM) | pIC50 (second compound 1 µM)
6.32: pIC50 (second compound 0.1 µM)

O=C(c1cc(Cc2n[nH]c(=O)c3ccccc23)ccc1F)N1CCN(C(=O)C2CC2)CC1 + CC(CO)NC(=O)c1cc(-c2ccc(Cl)cc2)nn(-c2cnn(C)c2)c1=O
inactive: viability, T/C [1] 112% | viability, T/C [2] 106% | viability, T/C [3] 107% | viability, T/C [4] 102% | viability, T/C [5] 102% | viability, T/C [6] 98.3% | viability, T/C [7] 111% | viability, T/C [8] 112% | viability, T/C [9] 108% | viability, T/C [10] 107% | viability, T/C [11] 106% | viability, T/C [12] 102% | viability, T/C [13] 109% | viability, T/C [14] 114% | viability, T/C [15] 115% | viability, T/C [16] 112% | viability, T/C [17] 113% | viability, T/C [18] 107% | viability, T/C [19] 104% | viability, T/C [20] 104% | viability, T/C [21] 102% | viability, T/C [22] 101% | viability, T/C [23] 97.5% | viability, T/C [24] 94.8% | viability, T/C [25] 99.4% | viability, T/C [26] 101% | viability, T/C [27] 96.6% | viability, T/C [28] 99.4% | viability, T/C [29] 94.4% | viability, T/C [30] 90.7%
< 5.00: pIC50 (second compound 0.1 µM) | pIC50 (second compound 0.316 µM) | pIC50 (second compound 1 µM) | pIC50 (second compound 3.16 µM) | pIC50 (second compound 10 µM)
